Here are results for seven molecules from US9371294B2, “Cycloalkenyl aryl derivatives for CETP inhibitor” (CHONG KUN DANG PHARMACEUTICAL CORP., priority 2011, dated 2016).

A word on the IC50: it is the concentration that gives 50% inhibition. The low end stands for inhibition by little substance, the high end for a need for much substance.

The conditions of data set [1]: cited from earlier work.
Data set [2] addresses T1, cholesteryl ester transfer protein (Homo sapiens, UniProt P11597).
T1 construct: As a source of cholesteryl ester transfer protein, plasma from healthy humans was used; from tissue; host or cells: plasma from healthy humans
T1 sequence (P11597 18-493): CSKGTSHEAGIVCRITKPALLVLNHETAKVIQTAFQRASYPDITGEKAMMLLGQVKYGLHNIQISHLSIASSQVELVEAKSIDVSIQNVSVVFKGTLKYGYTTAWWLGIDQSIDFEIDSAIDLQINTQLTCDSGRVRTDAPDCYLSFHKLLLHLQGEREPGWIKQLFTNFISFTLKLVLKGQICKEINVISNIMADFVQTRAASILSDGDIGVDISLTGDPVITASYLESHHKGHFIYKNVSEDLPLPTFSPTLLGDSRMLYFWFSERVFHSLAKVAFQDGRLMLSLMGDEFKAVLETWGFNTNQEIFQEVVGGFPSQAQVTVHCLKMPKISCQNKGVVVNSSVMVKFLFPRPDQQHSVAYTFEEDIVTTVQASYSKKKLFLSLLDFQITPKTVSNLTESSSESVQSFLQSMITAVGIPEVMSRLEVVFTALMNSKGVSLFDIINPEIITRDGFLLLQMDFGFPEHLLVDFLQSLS
Description: In vitro test for the ability to inhibit cholesteryl ester transfer. The conditions noted are these: [3H]-cholesteryl oleate transfer from rHDL-agarose to LDL; human plasma as CETP source; 37° C.; 16-10000 nM, duplicate. The data set is classed as biochemical. In short, it runs like this:
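Human plasma served as the CETP source, with human LDL (0.25 mg/ml) as acceptor and agarose-immobilised recombinant HDL carrying [3H]-cholesteryl oleate (0.25 mg/ml) as donor, at 37 °C. Compounds were run in duplicate at 16–10000 nM. Transferred radioactivity in the supernatant was counted by beta detection, and IC50 was fitted from the fraction of label transferred to LDL.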

For a further data set, the system named is golden syrian hamsters. Description: Test for anti-hyperlipidemia activity in hamsters (blood HDL-c levels). The conditions noted are these: male golden syrian hamsters; 3 mg/kg orally for 5 days; serum HDL-cholesterol 4 hours after last administration; vs vehicle control. The data set is classed as in vivo. From the text: […] Test for Anti-Hyderlipidemia Activity in Hamsters
1. Experimental animals As test animals, 8-week-old male golden syrian hamsters were purchased and used in the experimental. The animal facility was kept at constant temperature and constant humidity with a 12-hr dark/12-hr light cycle, and the animals were allowed to access food and water ad libitum.
2. Experimental for Anti-Hyperlipidemia Activity in Hamsters
The test animals were used in the test after an acclimation of 1 week. The test animals were divided according to body weight into several groups, each consisting of 5-8 animals. 3 mg/kg of each test compound (CETP inhibitor) was administered orally to the animals. Each test compounds was suspended in a solvent vehicle that is a solution of 5% ethanol, 10% solutol and 85% deionized water (DW), to be used. Each of test compounds suspended in a solvent vehicle was administered orally to the […] for 5 days. To the control group, a solvent vehicle itself was administered. And then, after 4 hours from the last administration, blood was collected through the cardiac puncture. The collected blood was centrifuged at 3000 rpm for 15 minutes, and the concentration of HDL-cholesterol (Biosystem) in the separated serum was measured using a biochemical analyzer (ILab 300 plus, Instrumentation Laboratory).
3. Statistical Processing
All the results were expressed as mean±SEM, and each test group and the control group were compared using one-way ANOVA test (Dunnett's test, p<0.001) in order to determine the effect of each test group.

SMILES strings stand for the structures.

On to `O=C(O)c1cccnc1` [Niacin], for which the side effects entry in data set [1] (relatively large doses) was “facial flushing”.
Turning to `CCOC(=O)N1c2ccc(C(F)(F)F)cc2[C@@H](N(Cc2cc(C(F)(F)F)cc(C(F)(F)F)c2)C(=O)OC)C[C@H]1CC` [Torcetrapib], in data set [1] (clinical trials terminated), the “effect on blood pressure” value is listed as “increases in blood pressure” and the effect on mortality result is “increase in mortality”. Moreover, the “effect on hormone levels” value in data set [1] (hormones associated with elevation in blood pressure) was “increases the levels of hormones, such as aldosterone and cortisol”. The “effect on vascular wall” value in data set [1] (in vivo) is listed as “increases the thickness of the vascular wall to cause inflammation”.
With `CCC(CC)CC1(C(=O)Nc2ccccc2SC(=O)C(C)C)CCCCC1` [Dalcetrapib], the “rise in HDL-C” value in data set [1] (in vivo) is recorded as “insufficient rise in HDL-C”.
Consider `COC(=O)c1ccc(OC)c(C2=C(CN3C(=O)O[C@H](c4cc(C(F)(F)F)cc(C(F)(F)F)c4)[C@@H]3C)CCCC2)c1` [Compound 36, methyl 3-(2-(((4S,5R)-5-(3,5-bis(trifluoromethyl)phenyl)-4-methyl-2-oxooxazolidin-3-yl)methyl)cyclohex-1-enyl)-4-methoxybenzoate], for which, in data set [2], the 50% inhibitory concentration (IC50) was found to be 1090 nM. In addition, in the data set on golden syrian hamsters, the “HDL-c Increase (%)” value is 11%.
In the case of `COc1cc(F)c(C2(C)CC2)cc1C1=C(CN2C(=O)O[C@H](c3cc(C(F)(F)F)cc(C(F)(F)F)c3)[C@@H]2C)CC(C)(C)CC1` [Compound 302, (4S,5R)-5-(3,5-bis(trifluoromethyl)phenyl)-3-((2-(4-fluoro-2-methoxy-5-(1-methylcyclopropyl)phenyl)-5,5-dimethylcyclohex-1-enyl)methyl)-4-methyloxazolidin-2-one], half-maximal inhibition in data set [2] (IC50) required 6 nM. For the same molecule, in the data set with golden syrian hamsters, the “HDL-c Increase (%)” value is reported as 38%.
In turn, `COc1cc(F)c(C(C)C)cc1C1=C(CN2C(=O)O[C@H](c3cc(C(F)(F)F)cc(C(F)(F)F)c3)[C@@H]2C)CC(C(F)(F)F)CC1` (stereo partly drawn) [Compound 48, (4S,5R)-5-(3,5-bis(trifluoromethyl)phenyl)-3-((2-(4-fluoro-5-isopropyl-2-methoxyphenyl)-5-(trifluoromethyl)cyclohex-1-enyl)methyl)-4-methyloxazolidin-2-one] gave an IC50 in data set [2] of 5 nM. For the same molecule, the “HDL-c Increase (%)” value with golden syrian hamsters came to 41%.
In the case of `COc1ccc(C(F)(F)F)cc1C1=C(CN2C(=O)O[C@H](c3cc(C(F)(F)F)cc(C(F)(F)F)c3)[C@@H]2C)CC(C)(C)CC1` [Compound 97, (4S,5R)-5-(3,5-bis(trifluoromethyl)phenyl)-3-((2-(2-methoxy-5-(trifluoromethyl)phenyl)-5,5-dimethylcyclohex-1-enyl)methyl)-4-methyloxazolidin-2-one], the IC50 in data set [2] was found to be 20 nM. In the data set on golden syrian hamsters, the “HDL-c Increase (%)” value was determined as 22%.
